According to ChEMBL document CHEMBL5303573, “Mapping human microbiome drug metabolism by gut bacteria and their genes” (Nature, 2019):

Assays:
[1] = The drug is tested on Blautia hansenii strain: DSM20583 for biotransformation. The drug concentrations were measured before and after a 12-h incubation by liquid-chromatography-coupled mass spectrometry (LC–MS); conditions: 2 µM
[2] = The drug is tested on Bacteroides ovatus strain: ATCC8483 for biotransformation. The drug concentrations were measured before and after a 12-h incubation by liquid-chromatography-coupled mass spectrometry (LC–MS); conditions: 2 µM
[3] = enterocloster bolteae, 12 h, 2 µM
[4] = The drug is tested on Eubacterium ventriosum strain: ATCC27560 for biotransformation. The drug concentrations were measured before and after a 12-h incubation by liquid-chromatography-coupled mass spectrometry (LC–MS); type: ADME; set-up: dose 2 uM, timepoint 0 vs 12 hours; conditions: 2 µM
[5] = The drug is tested on Bacteroides caccae strain: ATCC43185 for biotransformation. The drug concentrations were measured before and after a 12-h incubation by liquid-chromatography-coupled mass spectrometry (LC–MS); conditions: 2 µM
[6] = The drug is tested on Bifidobacterium breve strain: DSM20213 for biotransformation. The drug concentrations were measured before and after a 12-h incubation by liquid-chromatography-coupled mass spectrometry (LC–MS); conditions: 2 µM
[7] = bacteroides thetaiotaomicron, 12 h, 2 µM
[8] = bacteroides thetaiotaomicron, 12 h, 2 µM; remark: listed apart in the source
[9] = The drug is tested on Anaerococcus hydrogenalis strain: DSM7454 for biotransformation. The drug concentrations were measured before and after a 12-h incubation by liquid-chromatography-coupled mass spectrometry (LC–MS); conditions: 2 µM
[10] = The drug is tested on Clostridium symbiosum strain: ATCC14940 for biotransformation. The drug concentrations were measured before and after a 12-h incubation by liquid-chromatography-coupled mass spectrometry (LC–MS); conditions: 2 µM
[11] = The drug is tested on Bacteroides fragilis strain: ATCC43859 for biotransformation. The drug concentrations were measured before and after a 12-h incubation by liquid-chromatography-coupled mass spectrometry (LC–MS); conditions: 2 µM
[12] = The drug is tested on Enterobacter cancerogenus strain: ATCC35316 for biotransformation. The drug concentrations were measured before and after a 12-h incubation by liquid-chromatography-coupled mass spectrometry (LC–MS); conditions: 2 µM
[13] = The drug is tested on Eubacterium hallii strain: DSM3353 for biotransformation. The drug concentrations were measured before and after a 12-h incubation by liquid-chromatography-coupled mass spectrometry (LC–MS); conditions: anaerobutyricum hallii, 2 µM
[14] = The drug is tested on Bacteroides fragilis strain: HMW615 for biotransformation. The drug concentrations were measured before and after a 12-h incubation by liquid-chromatography-coupled mass spectrometry (LC–MS); conditions: 2 µM
[15] = The drug is tested on Clostridium scindens strain: ATCC35704 for biotransformation. The drug concentrations were measured before and after a 12-h incubation by liquid-chromatography-coupled mass spectrometry (LC–MS); conditions: 2 µM
[16] = The drug is tested on Parabacteroides merdae strain: ATCC43184 for biotransformation. The drug concentrations were measured before and after a 12-h incubation by liquid-chromatography-coupled mass spectrometry (LC–MS); conditions: 2 µM
[17] = The drug is tested on Dorea formicigenerans strain: ATCC27755 for biotransformation. The drug concentrations were measured before and after a 12-h incubation by liquid-chromatography-coupled mass spectrometry (LC–MS); conditions: 2 µM
[18] = The drug is tested on Bacteroides finegoldii strain: DSM17565 for biotransformation. The drug concentrations were measured before and after a 12-h incubation by liquid-chromatography-coupled mass spectrometry (LC–MS); conditions: 2 µM
[19] = The drug is tested on Enterococcus faecalis strain: V583 for biotransformation. The drug concentrations were measured before and after a 12-h incubation by liquid-chromatography-coupled mass spectrometry (LC–MS); conditions: 2 µM

Compound	Bacterial Biotransformation [1]	Bacterial Biotransformation [2]	Bacterial Biotransformation [3]	Bacterial Biotransformation [4]	Bacterial Biotransformation [6]	Bacterial Biotransformation [7]	Bacterial Biotransformation [9]	Bacterial Biotransformation [10]	Bacterial Biotransformation [11]	Bacterial Biotransformation [12]	Bacterial Biotransformation [13]	Bacterial Biotransformation [14]	Bacterial Biotransformation [15]	Bacterial Biotransformation [16]	Bacterial Biotransformation [18]	Bacterial Biotransformation [5]	Bacterial Biotransformation [8]	Bacterial Biotransformation [17]	Bacterial Biotransformation [19]
CC(C)(C)NC(=O)[C@H]1CC[C@H]2[C@@H]3CC[C@H]4NC(=O)C=C[C@]4(C)[C@H]3CC[C@]12C [FINASTERIDE]	Compound NOT metabolized	Compound NOT metabolized	Compound NOT metabolized	Compound NOT metabolized	Compound NOT metabolized	Compound NOT metabolized	Compound NOT metabolized	Compound NOT metabolized	Compound metabolized	Compound NOT metabolized	Compound NOT metabolized	Compound metabolized	Compound metabolized	Compound NOT metabolized	Compound metabolized	Compound NOT metabolized	–	Compound NOT metabolized	Compound NOT metabolized
COc1ccc2c3c1O[C@H]1C[C@@H](O)C=C[C@@]31CCN(C)C2 [GALANTAMINE]	Compound NOT metabolized	Compound metabolized	Compound NOT metabolized	Compound NOT metabolized	Compound NOT metabolized	Compound metabolized	Compound NOT metabolized	Compound NOT metabolized	Compound metabolized	Compound NOT metabolized	Compound NOT metabolized	Compound metabolized	Compound NOT metabolized	Compound NOT metabolized	–	Compound NOT metabolized	Compound metabolized	Compound NOT metabolized	Compound metabolized
Cc1ccc(NC(=O)c2ccc(CN3CCN(C)CC3)cc2)cc1Nc1nccc(-c2cccnc2)n1 [IMATINIB]	Compound NOT metabolized	Compound NOT metabolized	Compound NOT metabolized	Compound NOT metabolized	Compound NOT metabolized	Compound NOT metabolized	Compound NOT metabolized	–	Compound NOT metabolized	Compound NOT metabolized	–	–	–	Compound NOT metabolized	Compound NOT metabolized	Compound NOT metabolized	Compound NOT metabolized	Compound NOT metabolized	Compound NOT metabolized
Nc1nc(N)nc(-c2cc(Cl)ccc2Cl)n1.O=C(O)/C=C\C(=O)O [IRSOGLADINE MALEATE]	Compound NOT metabolized	Compound NOT metabolized	Compound NOT metabolized	Compound NOT metabolized	Compound NOT metabolized	Compound NOT metabolized	Compound NOT metabolized	Compound NOT metabolized	Compound NOT metabolized	Compound NOT metabolized	Compound NOT metabolized	Compound NOT metabolized	Compound NOT metabolized	Compound NOT metabolized	Compound NOT metabolized	Compound NOT metabolized	Compound NOT metabolized	Compound NOT metabolized	Compound NOT metabolized
CN1CCN(C2=Nc3ccccc3Oc3ccc(Cl)cc32)CC1.O=C(O)CCC(=O)O [LOXAPINE SUCCINATE]	Compound NOT metabolized	Compound NOT metabolized	Compound NOT metabolized	Compound NOT metabolized	Compound NOT metabolized	Compound NOT metabolized	Compound NOT metabolized	Compound NOT metabolized	Compound NOT metabolized	Compound NOT metabolized	Compound NOT metabolized	Compound NOT metabolized	–	Compound NOT metabolized	Compound NOT metabolized	Compound NOT metabolized	Compound NOT metabolized	Compound NOT metabolized	Compound NOT metabolized

Now from value to compound, other results behind:

Bacterial Biotransformation [1]	Bacterial Biotransformation [2]	Bacterial Biotransformation [3]	Bacterial Biotransformation [4]	Bacterial Biotransformation [6]	Bacterial Biotransformation [7]	Bacterial Biotransformation [9]	Bacterial Biotransformation [10]	Bacterial Biotransformation [11]	Bacterial Biotransformation [12]	Bacterial Biotransformation [13]	Bacterial Biotransformation [14]	Bacterial Biotransformation [15]	Bacterial Biotransformation [16]	Bacterial Biotransformation [18]	Compound	Bacterial Biotransformation [5]	Bacterial Biotransformation [8]	Bacterial Biotransformation [17]	Bacterial Biotransformation [19]
Compound NOT metabolized	Compound NOT metabolized	Compound NOT metabolized	Compound NOT metabolized	Compound NOT metabolized	Compound NOT metabolized	Compound NOT metabolized	Compound NOT metabolized	Compound NOT metabolized	Compound NOT metabolized	Compound NOT metabolized	Compound NOT metabolized	Compound NOT metabolized	Compound NOT metabolized	–	Cc1cc2c(cc1S(N)(=O)=O)S(=O)(=O)CCC2	Compound NOT metabolized	Compound NOT metabolized	–	–
Compound NOT metabolized	Compound metabolized	Compound NOT metabolized	Compound NOT metabolized	Compound NOT metabolized	Compound metabolized	Compound NOT metabolized	Compound NOT metabolized	Compound metabolized	Compound NOT metabolized	Compound NOT metabolized	Compound metabolized	Compound NOT metabolized	Compound metabolized	Compound metabolized	CC(=O)OCC(CCn1cnc2cnc(N)nc21)COC(C)=O [FAMCICLOVIR]	Compound metabolized	Compound metabolized	Compound NOT metabolized	–
Compound NOT metabolized	Compound NOT metabolized	Compound NOT metabolized	Compound NOT metabolized	Compound NOT metabolized	Compound NOT metabolized	Compound NOT metabolized	Compound NOT metabolized	Compound NOT metabolized	Compound NOT metabolized	Compound NOT metabolized	Compound NOT metabolized	Compound NOT metabolized	Compound NOT metabolized	Compound NOT metabolized	N#Cc1ccc(C(c2ccc(C#N)cc2)n2cncn2)cc1 [LETROZOLE]	Compound NOT metabolized	Compound NOT metabolized	Compound NOT metabolized	Compound NOT metabolized
Compound metabolized	Compound NOT metabolized	Compound NOT metabolized	Compound NOT metabolized	Compound NOT metabolized	Compound metabolized	Compound NOT metabolized	Compound NOT metabolized	Compound metabolized	Compound NOT metabolized	Compound NOT metabolized	Compound metabolized	Compound NOT metabolized	Compound NOT metabolized	Compound metabolized	O=C(O)CCc1nc(-c2ccccc2)c(-c2ccccc2)o1 [OXAPROZIN]	–	Compound metabolized	Compound NOT metabolized	Compound NOT metabolized
